# Values joined by “and” are separate entries in the source; they are usually repeats but may differ in a detail not shown here. Equal entries are not always repeated.
# Tested on: T-47D spheroids with HUVEC/MSC, viability
# Assay: Anticancer human tumor T-47D cell line growth inhibition [PI3K];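 further: spheroids exposed to agents for seven days before reading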;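 on viability, T/C: percent of DMSO vehicle control luminescence so 100% = untreated growth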
# Conditions: for viability, T/C: stronger effect = lower value
# Description: Combinatorial screen of targeted agents with the PI3K inhibitors inavolisib, alpelisib, duvelisib, and copanlisib in multi-cell type tumor spheroids
# A high-throughput screen of multi-cell type tumor spheroids was designed to identify active combinations of targeted small molecules and PI3K pathway inhibitors. Complex spheroids include a stromal component modeled by human endothelial cells (HUVEC) and fibroblasts modeled by human mesenchymal stem cells (MSCs). The concentration ranges selected for each drug and investigational agent were based upon clinically achievable concentrations if the clinical Cmax of the agent was known.
# Compounds. The drugs and investigational agents: inavolisib (NSC800729), alpelisib (NSC765974), duvelisib (NSC772469), copanlisib (NSC816437), ipatasertib (NSC767898), afuresertib (NSC778305), talazoparib (NSC767125), sapanisertib (NSC764658), selumetinib (NSC741078), tovorafenib (DAY101, NSC766906), vemurafenib (NSC761431), ravoxertinib (NSC781343), sotorasib (NSC818433), MRTX1133 (NSC 836407), abemaciclib (NSC 768073), palbociclib (NSC758247), venetoclax (NSC 766270), SY5609 (NSC837396), enzalutamide (NSC755605), and darolutamide (NSC825331), were obtained from the National Cancer Institute (NCI) Developmental Therapeutics Program Chemical Repository. The FDA-approved anticancer drug set is available from the NCI Developmental Therapeutics Program. […] The stock solutions were prepared in dimethyl sulfoxide (DMSO, Sigma-Aldrich, St. Louis, MO, cat. D2650) at 800-fold the tested concentration and stored at -70 degrees C prior to their use. All drugs and investigational agents were tested over a range starting from a high concentration at or near the clinical Cmax and decreasing in half-log increments. If the clinical Cmax for an agent had not been determined, the highest concentration tested was 10 microM.
# Cell Culture. All cells were maintained in an incubator at 37 degrees C and 5% CO2 with 95% humidity. The PDC lines were cultured according to standard operating procedures established by the NCI PDMR (https://pdmr.cancer.gov/sops/default.htm). All PDCs were thawed and cultured in Matrigel-coated flasks prepared with a working solution of 1X Ham's F-12 nutrient mix, without supplementation (Invitrogen, Waltham, MA, cat. 11765054), 100 U/mL penicillin-streptomycin (Invitrogen, cat. 15140122), and 2.5% Matrigel (Corning Inc., Corning, NY, cat. 354248) for the first three passages. The 354836-022-R-J1-PDC, 475296-252-R-J1-PDC, and 997726-040-R-J2-PDC lines were cultured in 6A media, which includes advanced DMEM/F-12 (Thermo Fisher Scientific, cat. 12634028), 10 mM HEPES (Thermo Fisher Scientific, cat. 15630080), 1X GlutaMAX supplement (Thermo Fisher Scientific, cat. 35050061), 0.1 mg/mL primocin (InvivoGen, San Diego, CA, cat. ant-pm-2), 10% defined fetal bovine serum, heat inactivated (HyClone Laboratories Inc., Logan, UT, cat. SH30070.03HI), 50% L-WRN conditioned media (ATCC, cat. CRL-3276), 1.25 mM N-Acetyl-L-cysteine (Sigma-Aldrich, cat. A9165), 10 mM nicotinamide (Sigma-Aldrich, cat. N0636), 1X B-27 supplement (Thermo Fisher Scientific, cat. 17504044), 1X N-2 supplement (Thermo Fisher Scientific, cat. 17502048), and 10 microM Y-27632 dihydrochloride (Tocris Bioscience, Bristol, United Kingdom, cat. 1254). The 624824-186-R-J2-PDC line was cultured in 6C/Colon 1B media, which includes all 6A media components plus 50 ng/mL human EGF recombinant protein (Thermo Fisher Scientific, cat. PHG0311). […]
# [1] = curve of first compound, second compound 0.00316 µM
# [2] = curve of first compound, second compound 0.01 µM
# [3] = curve of first compound, second compound 0.0316 µM
# [4] = curve of first compound, second compound 0.1 µM
# [5] = curve of first compound, second compound 0.316 µM
# [6] = curve of first compound, second compound 1 µM
# [7] = second compound 0.00316 µM, first compound 0.0316 µM
# [8] = second compound 0.00316 µM, first compound 0.1 µM
# [9] = second compound 0.00316 µM, first compound 0.316 µM
# [10] = second compound 0.00316 µM, first compound 1 µM
# [11] = second compound 0.00316 µM, first compound 3.16 µM
# [12] = second compound 0.00316 µM, first compound 10 µM
# [13] = second compound 0.01 µM, first compound 0.0316 µM
# [14] = second compound 0.01 µM, first compound 0.1 µM
# [15] = second compound 0.01 µM, first compound 0.316 µM
# [16] = second compound 0.01 µM, first compound 1 µM
# [17] = second compound 0.01 µM, first compound 3.16 µM
# [18] = second compound 0.01 µM, first compound 10 µM
# [19] = second compound 0.0316 µM, first compound 0.0316 µM
# [20] = second compound 0.0316 µM, first compound 0.1 µM
# [21] = second compound 0.0316 µM, first compound 0.316 µM
# [22] = second compound 0.0316 µM, first compound 1 µM
# [23] = second compound 0.0316 µM, first compound 3.16 µM
# [24] = second compound 0.0316 µM, first compound 10 µM
# [25] = second compound 0.1 µM, first compound 0.0316 µM
# [26] = second compound 0.1 µM, first compound 0.1 µM
# [27] = second compound 0.1 µM, first compound 0.316 µM
# [28] = second compound 0.1 µM, first compound 1 µM
# [29] = second compound 0.1 µM, first compound 3.16 µM
# [30] = second compound 0.1 µM, first compound 10 µM
# [31] = second compound 0.316 µM, first compound 0.0316 µM
# [32] = second compound 0.316 µM, first compound 0.1 µM
# [33] = second compound 0.316 µM, first compound 0.316 µM
# [34] = second compound 0.316 µM, first compound 1 µM
# [35] = second compound 0.316 µM, first compound 3.16 µM
# [36] = second compound 0.316 µM, first compound 10 µM
# [37] = second compound 1 µM, first compound 0.0316 µM
# [38] = second compound 1 µM, first compound 0.1 µM
# [39] = second compound 1 µM, first compound 0.316 µM
# [40] = second compound 1 µM, first compound 1 µM
# [41] = second compound 1 µM, first compound 3.16 µM
# [42] = second compound 1 µM, first compound 10 µM
compound,measurement,setting,value
CNC(=O)c1ccc(N2C(=S)N(c3ccc(C#N)c(C(F)(F)F)c3)C(=O)C2(C)C)cc1F + COc1c(OCCCN2CCOCC2)ccc2c3n(c(=NC(=O)c4cnc(N)nc4)nc12)CCN3,IC50,[1],> 10 µM
same,IC50,[2],> 10 µM
same,IC50,[3],> 10 µM
same,IC50,[4],< 0.0316 µM
same,IC50,[5],< 0.0316 µM
same,IC50,[6],< 0.0316 µM
same,"viability, T/C",[7],122%
same,"viability, T/C",[8],84.3%
same,"viability, T/C",[9],87.8%
same,"viability, T/C",[10],81.1%
same,"viability, T/C",[11],98.8%
same,"viability, T/C",[12],86.5%
same,"viability, T/C",[13],102%
same,"viability, T/C",[14],90.3%
same,"viability, T/C",[15],105%
same,"viability, T/C",[16],104%
same,"viability, T/C",[17],81.3%
same,"viability, T/C",[18],91.2%
same,"viability, T/C",[19],72.3%
same,"viability, T/C",[20],80%
same,"viability, T/C",[21],72.1%
same,"viability, T/C",[22],69.1%
same,"viability, T/C",[23],64.4%
same,"viability, T/C",[24],62%
same,"viability, T/C",[25],37.6%
same,"viability, T/C",[26],44.8%
same,"viability, T/C",[27],40%
same,"viability, T/C",[28],46%
same,"viability, T/C",[29],37.2%
same,"viability, T/C",[30],43.8%
same,"viability, T/C",[31],18.9%
same,"viability, T/C",[32],21.8%
same,"viability, T/C",[33],16.7%
same,"viability, T/C",[34],19.6%
same,"viability, T/C",[35],18.1%
same,"viability, T/C",[36],14.9%
same,"viability, T/C",[37],5.78%
same,"viability, T/C",[38],6.91%
same,"viability, T/C",[39],7.72%
same,"viability, T/C",[40],3.81%
same,"viability, T/C",[41],3.1%
same,"viability, T/C",[42],4.67%
C=CC(=O)N1CCN(c2nc(=O)n(-c3c(C)ccnc3C(C)C)c3nc(-c4c(O)cccc4F)c(F)cc23)C(C)C1 (stereo not given) + CC(Nc1ccc2c(c1)OCCn1cc(N3C(=O)OCC3C(F)F)nc1-2)C(N)=O,IC50,[1],> 10 µM
same,IC50,[2],> 10 µM
same,IC50,[3],> 10 µM
same,IC50,[4],> 10 µM
same,IC50,[5],> 10 µM
same,IC50,[6],< 0.0316 µM
same,"viability, T/C",[7],87.5%
same,"viability, T/C",[8],103%
same,"viability, T/C",[9],78.8%
same,"viability, T/C",[10],86.3%
same,"viability, T/C",[11],97.3%
same,"viability, T/C",[12],113%
same,"viability, T/C",[13],104%
same,"viability, T/C",[14],67.8%
same,"viability, T/C",[15],106%
same,"viability, T/C",[16],84.8%
same,"viability, T/C",[17],99.9%
same,"viability, T/C",[18],92.1%
same,"viability, T/C",[19],99%
same,"viability, T/C",[20],84.8%
same,"viability, T/C",[21],95.9%
same,"viability, T/C",[22],98%
same,"viability, T/C",[23],88.2%
same,"viability, T/C",[24],88.3%
same,"viability, T/C",[25],81.2%
same,"viability, T/C",[26],83.6%
same,"viability, T/C",[27],83.8%
same,"viability, T/C",[28],98.5%
same,"viability, T/C",[29],82.9%
same,"viability, T/C",[30],96.8%
same,"viability, T/C",[31],71.2%
same,"viability, T/C",[32],73.3%
same,"viability, T/C",[33],77%
same,"viability, T/C",[34],74.5%
same,"viability, T/C",[35],75.9%
same,"viability, T/C",[36],79.2%
same,"viability, T/C",[37],48.5%
same,"viability, T/C",[38],47.2%
same,"viability, T/C",[39],59%
same,"viability, T/C",[40],54.2%
same,"viability, T/C",[41],63.4%
same,"viability, T/C",[42],67.2%
CC(Cn1ccc(-c2ccc(C#N)c(Cl)c2)n1)NC(=O)c1cc(C(C)O)[nH]n1 (stereo not given) + CC(Nc1ccc2c(c1)OCCn1cc(N3C(=O)OCC3C(F)F)nc1-2)C(N)=O,IC50,[1],> 10 µM
same,IC50,[2],> 10 µM
same,IC50,[3],> 10 µM
same,IC50,[4],> 10 µM
same,IC50,[5],> 10 µM
same,IC50,[6],0.25 µM
same,"viability, T/C",[7],92.5%
same,"viability, T/C",[8],91.2%
same,"viability, T/C",[9],83.2%
same,"viability, T/C",[10],79.1%
same,"viability, T/C",[11],88.5%
same,"viability, T/C",[12],59.3%
same,"viability, T/C",[13],114%
same,"viability, T/C",[14],85.7%
same,"viability, T/C",[15],92.1%
same,"viability, T/C",[16],73.5%
same,"viability, T/C",[17],92.2%
same,"viability, T/C",[18],63.2%
same,"viability, T/C",[19],125%
same,"viability, T/C",[20],98%
same,"viability, T/C",[21],76.2%
same,"viability, T/C",[22],83.2%
same,"viability, T/C",[23],90.6%
same,"viability, T/C",[24],62.7%
same,"viability, T/C",[25],83.1%
same,"viability, T/C",[26],76.5%
same,"viability, T/C",[27],76.2%
same,"viability, T/C",[28],72.1%
same,"viability, T/C",[29],87.7%
same,"viability, T/C",[30],67.2%
same,"viability, T/C",[31],65.8%
same,"viability, T/C",[32],65.7%
same,"viability, T/C",[33],55.2%
same,"viability, T/C",[34],57.3%
same,"viability, T/C",[35],60.2%
same,"viability, T/C",[36],53.5%
same,"viability, T/C",[37],87.2%
same,"viability, T/C",[38],56.4%
same,"viability, T/C",[39],46.8%
same,"viability, T/C",[40],46.1%
same,"viability, T/C",[41],54.7%
same,"viability, T/C",[42],41.4%
CC1(C)CCC(Nc2ncc(C(F)(F)F)c(-c3c[nH]c4c(P(C)(C)=O)c(C#N)ccc34)n2)CN1 (stereo not given),"viability, T/C",compound 0.0316 µM,66% (2×) and 68.7% and 70.4%
same,"viability, T/C",compound 0.1 µM,72% [middle of 4 runs]
same,"viability, T/C",compound 0.316 µM,69.9% [middle of 4 runs]
same,"viability, T/C",compound 1 µM,79.7% [middle of 4 runs]
same,"viability, T/C",compound 3.16 µM,79.9% [middle of 4 runs]
same,"viability, T/C",compound 10 µM,54.5% (2×) and 54.6% and 58.2%
same,IC50,curve of compound,> 10 µM
CCN1CCN(Cc2ccc(Nc3ncc(F)c(-c4cc(F)c5nc(C)n(C(C)C)c5c4)n3)nc2)CC1,"viability, T/C",compound 0.00316 µM,104% [middle of 4 runs]
same,"viability, T/C",compound 0.01 µM,91.4% [middle of 4 runs]
same,"viability, T/C",compound 0.0316 µM,102% [middle of 4 runs]
same,"viability, T/C",compound 0.1 µM,90.4% [middle of 4 runs]
same,"viability, T/C",compound 0.316 µM,90.4% [middle of 4 runs]
same,"viability, T/C",compound 1 µM,91.2% [middle of 4 runs]
same,IC50,curve of compound,> 1 µM

# From PubChem BioAssay AID1963959 (Molecular Pharmacology Branch, DTP, NCI, 2024)
